Results on 29 molecules are retold here after ChEMBL document CHEMBL4483862, “Open-source discovery of chemical leads for next-generation chemoprotective antimalarials” (2018).

The structures appear in SMILES notation.

The subject of this assay is Plasmodium berghei. Kind of assay: Luciferase/luciferin-expressing antifolate-resistant parasites were used to infect a culture of HepG2 cells that were pre-incubated with compounds. Infected hepatocytes emit light due to the luciferase reaction. Assay results are presented as the percent inhibition of light emission compared to control. […]. The format is functional. To be noted: sporozoite; for IC90: read-out: LUCIFERASE INFECTION ASSAY - IC90.

Where [1] appears, read: FFLUC_HILL_SLOPE 11.2, FFLUC_R_SQUARED 0.126, read-out: LUCIFERASE INFECTION ASSAY - IC50.

As to `CCn1cc(C(=O)N[C@@H](C)C(=O)OC)c(=O)c2cc3c(cc21)OCO3`, the IC90 (as a rule, the point of the concentration-response curve where the effect stands at 90%) is > 9.53 µM. Besides, the half-maximal inhibitory concentration (IC50) (in general, the concentration at which inhibition is half-maximal) (FFLUC_HILL_SLOPE 11.2, FFLUC_R_SQUARED 0.325, read-out: LUCIFERASE INFECTION ASSAY - IC50) was > 9.53 µM.

In the case of `C=CCc1ccccc1OCCn1c(C2CC(=O)N(Cc3ccc(F)cc3)C2)nc2ccccc21` (stereo not drawn), the IC90 is > 10 µM. Besides, for the setting “FFLUC_HILL_SLOPE 11.3, FFLUC_R_SQUARED 0.11, read-out: LUCIFERASE INFECTION ASSAY - IC50”, the IC50 is > 10 µM.

Consider `CC(C)(C)c1ccc(OCc2nc(=O)cc(Nc3ccccc3Cl)[nH]2)cc1`, for which the IC90 was > 8.6 µM. Besides, the IC50 (FFLUC_HILL_SLOPE 11.4, FFLUC_R_SQUARED 0.169, HEPG2TOX_HILL_SLOPE 0.949, HEPG2TOX_R_SQUARED 0.863, read-out: LUCIFERASE INFECTION ASSAY - IC50) is > 8.6 µM.

On to `COC(=O)c1cc(C(=O)OC)cc(-n2c(C)cc(C(=O)Cn3ncc(Cl)c(Cl)c3=O)c2C)c1`, for which the 90% effect concentration (IC90) came to 4.48 µM. For the same molecule, the half-maximal inhibitory concentration (IC50) (FFLUC_HILL_SLOPE 11.1, FFLUC_R_SQUARED 0.501, HEPG2TOX_HILL_SLOPE 4.27, HEPG2TOX_R_SQUARED 0.789, PBLUC_HILL_SLOPE 11.5, PBLUC_R_SQUARED 0.682, read-out: LUCIFERASE INFECTION ASSAY - IC50) was 3.7 µM.

For the molecule `N#C/C(=C\Nc1ncccn1)S(=O)(=O)c1ccccc1Cl`, the IC90 is > 10.3 µM. The IC50 (FFLUC_HILL_SLOPE 11.3, FFLUC_R_SQUARED 0.831, read-out: LUCIFERASE INFECTION ASSAY - IC50) is > 10.3 µM.

Turning to `COc1ccc(N(C(C)=O)c2nc(/C=C/C(=O)c3ccc(F)cc3)cs2)cc1`, the IC90 was > 10 µM. For the same molecule, under “FFLUC_HILL_SLOPE 11.2, FFLUC_R_SQUARED 0.397, read-out: LUCIFERASE INFECTION ASSAY - IC50”, the IC50 was > 10 µM.

In the case of `COc1ccc2c(c1)/C(=N/NC(=O)c1ccc(CSc3ccc(Cl)cc3)cc1)C(=O)N2`, the IC90 was > 10 µM. For the setting “FFLUC_HILL_SLOPE 11.4, FFLUC_R_SQUARED 0.124, PBLUC_HILL_SLOPE 3.43, PBLUC_R_SQUARED 0.087, read-out: LUCIFERASE INFECTION ASSAY - IC50”, the IC50 worked out at 6.03 µM.

As to `O=[N+]([O-])c1ccsc1Sc1ccc(C(F)(F)F)cn1`, the IC90 was > 10.8 µM. In addition, the half-maximal inhibitory concentration (IC50) (FFLUC_HILL_SLOPE 11.2, FFLUC_R_SQUARED 0.0124, HEPG2TOX_HILL_SLOPE 0.715, HEPG2TOX_R_SQUARED 0.731, read-out: LUCIFERASE INFECTION ASSAY - IC50) was > 10.8 µM.

As to `CCN(CC)S(=O)(=O)c1ccc(Cl)c(NC(=O)CSc2nnc(-c3ccc(F)cc3)c3ccccc23)c1`, the IC90 is > 10 µM. Besides, the IC50 (FFLUC_HILL_SLOPE 11.3, FFLUC_R_SQUARED 0.167, read-out: LUCIFERASE INFECTION ASSAY - IC50) is > 10 µM.

In the case of `O=C(NC(c1ccccc1)c1ccccc1)[C@@H]1C[C@@H](OCc2ccccc2)CN1CC1CCCCC1`, the IC90 is > 6.84 µM. The IC50 (FFLUC_HILL_SLOPE 11.2, FFLUC_R_SQUARED 0.284, read-out: LUCIFERASE INFECTION ASSAY - IC50) was > 6.84 µM.

`CCNC(=O)C(C)Nc1ncnc2scc(-c3ccc(OC)cc3)c12` (stereo not drawn): the 90% effect concentration (IC90) came to 9.59 µM. Moreover, the IC50 (FFLUC_HILL_SLOPE 11.3, FFLUC_R_SQUARED 0.625, HEPG2TOX_HILL_SLOPE 3.17, HEPG2TOX_R_SQUARED 0.973, PBLUC_HILL_SLOPE 4.87, PBLUC_R_SQUARED 0.647, read-out: LUCIFERASE INFECTION ASSAY - IC50) was determined as 6.11 µM.

Turning to `Cc1onc(-c2c(Cl)cccc2Cl)c1NC(=O)Nc1ccc(Oc2ccc(C(C)(C)C)cc2)nc1`, the IC90 is > 6.45 µM. Further, the 50% inhibitory concentration (IC50) (FFLUC_HILL_SLOPE 11.2, FFLUC_R_SQUARED 0.206, PBLUC_HILL_SLOPE 0.638, PBLUC_R_SQUARED 0.443, read-out: LUCIFERASE INFECTION ASSAY - IC50) worked out at 2.71 µM.

Turning to `N#CC1C(=N)Oc2c3c(c4ccccc4c2C1c1ccc(F)cc1)C(c1ccc(F)cc1)C(C#N)C(=N)O3` (stereo not drawn), the IC90 is > 6.54 µM. The IC50 (FFLUC_HILL_SLOPE 11.1, FFLUC_R_SQUARED 0.748, PBLUC_HILL_SLOPE 2.09, PBLUC_R_SQUARED 0.0277, read-out: LUCIFERASE INFECTION ASSAY - IC50) amounted to 4.45 µM.

For `CNc1cc(Nc2cc(C)c(Oc3cccc(C(C)(C)C)c3)cc2C)ncn1`, the IC90 turned out to be 8.49 µM. In addition, the half-maximal inhibitory concentration (IC50) (FFLUC_HILL_SLOPE 11.3, FFLUC_R_SQUARED 0.0353, HEPG2TOX_HILL_SLOPE 16.8, HEPG2TOX_R_SQUARED 0.912, PBLUC_HILL_SLOPE 9.72, PBLUC_R_SQUARED 0.605, read-out: LUCIFERASE INFECTION ASSAY - IC50) came to 6.77 µM.

For `COc1ccccc1/C=C(/C(=O)OC(C(=O)c1c[nH]c2ccccc12)c1ccccc1)c1ccccc1` (stereo not drawn), the IC90 is > 10 µM. In addition, the half-inhibitory concentration (IC50) (FFLUC_HILL_SLOPE 11.3, FFLUC_R_SQUARED 0.353, PBLUC_HILL_SLOPE 1.04, PBLUC_R_SQUARED 0.705, read-out: LUCIFERASE INFECTION ASSAY - IC50) came out at 3.6 µM.

Consider `O=C(Nc1cccc(Cl)c1)C1CCN(c2ccc(C(F)(F)F)cn2)CC1`, for which the IC90 is > 8.6 µM. For the same molecule, the concentration for half-maximal inhibition (IC50) (FFLUC_HILL_SLOPE 11.3, FFLUC_R_SQUARED 0.5, read-out: LUCIFERASE INFECTION ASSAY - IC50) was > 8.6 µM.

In the case of `CC1CCc2nc(/C(C#N)=C/c3ccccc3OC(F)F)sc2C1` (stereo not drawn), the IC90 amounted to 3.92 µM. In addition, under “FFLUC_HILL_SLOPE 11.1, FFLUC_R_SQUARED 0.825, PBLUC_HILL_SLOPE 3.87, PBLUC_R_SQUARED 0.911, read-out: LUCIFERASE INFECTION ASSAY - IC50”, the half-maximal inhibitory concentration (IC50) came out at 2.22 µM.

Regarding `CC(NC(=O)COC(=O)CSc1ccc(Br)c2cccc(Cl)c12)c1ccccc1` (stereo not drawn), the IC90 is > 10 µM. In addition, where the note is “FFLUC_HILL_SLOPE 11.2, FFLUC_R_SQUARED 0.0748, PBLUC_HILL_SLOPE 1.42, PBLUC_R_SQUARED 0.0165, read-out: LUCIFERASE INFECTION ASSAY - IC50”, the half-maximal inhibitory concentration (IC50) is > 10 µM.

As to `CN(C)S(=O)(=O)c1ccc(OCCOC(=O)c2c3c(nn2-c2ccccc2)CCCC3)cc1`, the concentration for an effect of 90% (IC90) was > 10 µM. The IC50 (FFLUC_HILL_SLOPE 11.3, FFLUC_R_SQUARED 0.368, read-out: LUCIFERASE INFECTION ASSAY - IC50) is > 10 µM.

Regarding `CCCNC(=O)c1c(NC(=O)c2ccc(C(F)(F)F)cc2)nc2ccc(C)cn12`, the IC90 came out at 1.11 µM. In addition, the half-inhibitory concentration (IC50) (FFLUC_HILL_SLOPE 11.2, FFLUC_R_SQUARED 0.698, HEPG2TOX_HILL_SLOPE 0.884, HEPG2TOX_R_SQUARED 0.902, PBLUC_HILL_SLOPE 2.26, PBLUC_R_SQUARED 0.742, read-out: LUCIFERASE INFECTION ASSAY - IC50) turned out to be 0.419 µM.

Turning to `CCCc1c(NC(=O)Nc2cc(C(F)(F)F)cc(C(F)(F)F)c2)cnn1-c1ccccc1`, the IC90 worked out at 3.79 µM. In addition, where the note is “FFLUC_HILL_SLOPE 11.3, FFLUC_R_SQUARED 0.657, HEPG2TOX_HILL_SLOPE 5.77, HEPG2TOX_R_SQUARED 0.944, PBLUC_HILL_SLOPE 9.21, PBLUC_R_SQUARED 0.384, read-out: LUCIFERASE INFECTION ASSAY - IC50”, the half-inhibitory concentration (IC50) stood at 2.99 µM.

With `CC(C)(C)c1ccc(C(=O)NCCOc2ccccc2Cl)cc1`, the 90% effect concentration (IC90) worked out at 0.863 µM. In addition, the IC50 (FFLUC_HILL_SLOPE 11.3, FFLUC_R_SQUARED 0.0884, PBLUC_HILL_SLOPE 2.08, PBLUC_R_SQUARED 0.74, read-out: LUCIFERASE INFECTION ASSAY - IC50) came out at 0.3 µM.

Turning to `Cc1nc(SC(C)C(=O)c2c[nH]c3ccccc23)c2c(=O)n(C)c(=O)n(CC(C)C)c2n1` (stereo not drawn), the IC90 is > 10 µM. Besides, the IC50 (FFLUC_HILL_SLOPE 11.3, FFLUC_R_SQUARED 0.363, PBLUC_HILL_SLOPE 2.42, PBLUC_R_SQUARED 0.455, read-out: LUCIFERASE INFECTION ASSAY - IC50) was determined as 7.35 µM.

In the case of `CCN(CC)S(=O)(=O)c1cccc(-c2nnc(SCC(=O)N3CCC(c4ccccc4)=N3)n2Cc2ccccc2)c1`, the IC90 is > 10 µM. In addition, the IC50 (FFLUC_HILL_SLOPE 11.4, FFLUC_R_SQUARED 0.285, PBLUC_HILL_SLOPE 0.735, PBLUC_R_SQUARED 0.117, read-out: LUCIFERASE INFECTION ASSAY - IC50) is > 10 µM.

For `CCCc1ccc(-c2nc(NC(=O)C3CCCN(c4ncccn4)C3)sc2C)cc1` (stereo not drawn), the IC90 is > 10 µM. Besides, the 50% inhibitory concentration (IC50) (FFLUC_HILL_SLOPE 11.3, FFLUC_R_SQUARED 0.0894, PBLUC_HILL_SLOPE 12.7, PBLUC_R_SQUARED 0.313, read-out: LUCIFERASE INFECTION ASSAY - IC50) worked out at 9.57 µM.

Take `Cc1ccc2cc(COC(=O)/C(=C/c3ccccc3)n3nnnc3C)c(Cl)nc2c1`: the IC90 is > 10 µM. Further, the half-maximal inhibitory concentration (IC50) under setting [1] was > 10 µM.

Turning to `C=S(=O)(NC(=O)CSc1nc2ccccc2s1)c1ccc(Cl)cc1` (stereo not drawn), the IC90 was > 8.31 µM. Besides, the IC50 under setting [1] was > 8.31 µM.

In the case of `O=C(CN(Cc1c(F)cccc1Cl)C1CC1)Nc1ccccc1Cl`, the concentration for an effect of 90% (IC90) is > 10 µM. Further, where the note is “FFLUC_HILL_SLOPE 11.2, FFLUC_R_SQUARED 0.995, read-out: LUCIFERASE INFECTION ASSAY - IC50”, the half-inhibitory concentration (IC50) was > 10 µM.

For the molecule `O=C(CCn1cnc([N+](=O)[O-])c1)Nc1nc(-c2ccccc2)c(-c2ccccc2)s1`, the IC90 was determined as 7.85 µM. In addition, under “FFLUC_HILL_SLOPE 11.3, FFLUC_R_SQUARED 0.217, PBLUC_HILL_SLOPE 4.55, PBLUC_R_SQUARED 0.65, read-out: LUCIFERASE INFECTION ASSAY - IC50”, the IC50 amounted to 4.84 µM.
